# US9708336B2, “Metallo-beta-lactamase inhibitors” (priority 2014, dated 2017)
# Read-outs that look alike come from different tables or passages of the source.
# Key:
# NDM-1 = NDM-1 (Klebsiella pneumoniae, UniProt C7C422); test: biochemical; type: biochemical; details: read-out: NDM-1 IC50
# IMP-1 = IMP-1 (Serratia marcescens, UniProt P52699); test: biochemical; type: biochemical; details: read-out: IMP-1 IC50
# [1] = tested on: Klebsiella pneumoniae expressing VIM-1 (IHMA599644); test: Antibiotic potentiation activity: synergistic concentration (MITC95) with imipenem, OD600 growth; type: cell-based; details: for Klebsiella pneumoniae expressing VIM-1 (IHMA 599644) MITC95: concentration giving 95% inhibition of bacterial growth
# Experimental: (§1) Antibiotic Potentiation Activity: Determination of Synergistic Concentration
# (§2) The bacterial strains tested included the clinical strains Escherichia coli expressing NDM-1 (CLB30005, CLB30016), Serratia marcescens expressing IMP-1 (CL5741), and Klebsiella pneumoniae expressing VIM-1 (IHMA599644) Inhibitor activity was measured in the presence and absence of imipenem in a 384-well microplate.
# (§3) The clinical strains CLB30016, CL5741 and IHMA599644 were grown on trypticase soy agar containing 5% sheep's blood. The clinical strain CLB30005 was grown on Mueller Hinton broth agar containing 8 ug/ml imipenem. The bacteria on agar plates were incubated at 35° C. with humidity overnight. The following day, individual colonies from each clinical strain were picked and resuspended in 5 ml saline to attain an OD600 of 0.14, 0.11, 0.15 and 0.13, for CLB30005, CLB30016, CL5741 and IHMA599644, respectively. These were further diluted 1:100 into 1.1×CAMHB and used to inoculate the test wells as described below.
# (§4) Imipenem in 10 mM 3-(N-morpholino)propanesulfonic acid (MOPS, pH 7) was stored in single use aliquots at −80° C. […] On the day of the assay, 4 μl of antibiotic was added to 45 ul of bacteria followed by 1 μl of test compound and mixed by pipetting and with an orbital shaker. The concentration of antibiotic used in the assay was 4 μg/ml, or optionally 1 μg/ml. Microplates were covered and incubated at 35° C. for 22 hours to 24 hours. At the end of the incubation, absorbance was determined using a spectrophotometer.
# [2] = tested on: Escherichia coli expressing NDM-1 (CLB30016); test: as above; type: cell-based; details: for Escherichia coli expressing NDM-1 (CLB 30016) MITC95: concentration giving 95% inhibition of bacterial growth
# Experimental: as §1, §2, §3, §4
# [3] = tested on: Serratia marcescens expressing IMP-1 (CL5741); test: as above; type: cell-based; details: for Serratia marcescens expressing IMP-1 (CL5741) MITC95: concentration giving 95% inhibition of bacterial growth
# Experimental: as §1, §2, §3, §4
# VIM-1 = VIM-1 (Pseudomonas aeruginosa (strain ATCC 15692 / DSM 22644 / CIP 104116 / JCM 14847 / LMG 12228 / 1C / PRS 101 / PAO1), UniProt A0A0F7KYQ8); test: Enzyme activity: determination of IC50, fluorescence assay with CCF2-FA substrate (VIM-1); type: biochemical
# [4] = fluorescence assay with CCF2-FA substrate
# [5] = IHMA599644 (VIM-1), 95% inhibition of bacterial growth
# [6] = CLB30016 (NDM-1), 95% inhibition of bacterial growth
# [7] = CL5741 (IMP-1), 95% inhibition of bacterial growth
# [8] = fluorescence assay with CCF2-FA substrate, read-out: VIM-1 IC50
# [9] = NDM-1 enzyme, CCF2-FA fluorescence assay
# [10] = IMP-1 enzyme, CCF2-FA fluorescence assay
# [11] = Klebsiella pneumoniae expressing VIM-1 (IHMA599644), 95% growth inhibition
# [12] = Escherichia coli expressing NDM-1 (CLB30016), 95% growth inhibition
# [13] = Serratia marcescens expressing IMP-1 (CL5741), 95% growth inhibition
# [14] = VIM-1 IC50, fluorescence assay with CCF2-FA substrate
# [15] = VIM-1 enzyme, CCF2-FA fluorescence assay, read-out: VIM-1 IC50
# [16] = NDM-1 enzyme, CCF2-FA substrate
# [17] = IMP-1 enzyme, CCF2-FA substrate
# [18] = Klebsiella pneumoniae IHMA599644 (VIM-1), 95% growth inhibition
# [19] = (CLB30016, NDM-1), 95% growth inhibition
# [20] = Serratia marcescens CL5741 (IMP-1), 95% growth inhibition
# [21] = VIM-1 enzyme, CCF2-FA substrate, read-out: VIM-1 IC50
# IMP-1, sequence (P52699 whole entry, looked up): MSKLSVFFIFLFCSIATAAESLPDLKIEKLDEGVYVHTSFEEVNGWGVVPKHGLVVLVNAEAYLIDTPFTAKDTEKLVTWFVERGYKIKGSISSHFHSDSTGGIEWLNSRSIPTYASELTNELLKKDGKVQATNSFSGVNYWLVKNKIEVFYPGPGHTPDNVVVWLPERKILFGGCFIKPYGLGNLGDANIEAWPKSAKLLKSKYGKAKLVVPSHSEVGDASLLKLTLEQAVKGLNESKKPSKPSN
# NDM-1, sequence (C7C422 whole entry, looked up, species assumed): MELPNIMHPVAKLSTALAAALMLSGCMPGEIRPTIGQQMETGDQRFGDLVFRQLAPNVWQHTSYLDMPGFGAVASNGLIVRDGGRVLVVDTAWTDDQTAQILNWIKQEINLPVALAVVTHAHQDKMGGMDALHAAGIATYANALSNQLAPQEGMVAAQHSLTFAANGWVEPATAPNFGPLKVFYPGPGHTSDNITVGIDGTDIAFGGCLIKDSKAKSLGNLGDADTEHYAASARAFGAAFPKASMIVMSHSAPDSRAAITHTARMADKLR
compound,measurement,setting,value
"NS(=O)(=O)c1c(C(F)(F)F)ccc(-c2ccc(C3CCN(CC4CCNC4)CC3)cc2)c1-c1nnn[nH]1 (centres unmarked) [Example 795, 4′-[1-(pyrrolidin-3-ylmethyl)piperidin-4-yl]-2-(1H-tetrazol-5-yl)-4-(trifluoromethyl)biphenyl-3-sulfonamide]",IC50,NDM-1; [4],5.23 nM
same,IC50,IMP-1; [4],1.1 nM
same,Klebsiella pneumoniae MITC95,[1]; [5],25 µM
same,Escherichia coli MITC95,[2]; [6],1.563 µM
same,Serratia marcescens MITC95,[3]; [7],3.125 µM
same,IC50,VIM-1; [8],6.57 nM
"N=CNCc1ccc(-c2ccc(Br)c(S(N)(=O)=O)c2-c2nn[nH]n2)cc1 [Example 425, N-((4′-bromo-3′-sulfamoyl-2′-(2H-tetrazol-5-yl)-[1,1′-biphenyl]-4-yl)methyl)formimidamide]",IC50,NDM-1; [9],13.5 nM
same,IC50,IMP-1; [10],15.9 nM
same,Klebsiella pneumoniae MITC95,[1]; [11],1.563 µM
same,Escherichia coli MITC95,[2]; [12],0.3906 µM
same,Serratia marcescens MITC95,[3]; [13],0.5859 µM
same,IC50,"VIM-1; VIM-1 IC50, VIM-1 enzyme, CCF2-FA fluorescence assay",4.07 nM
"NC1(C2CCN(c3ccc(C(F)(F)F)c(S(N)(=O)=O)c3-c3nnn[nH]3)C2)CC1 (centres unmarked) [Example 766, 3-[3-(1-aminocyclopropyl)pyrrolidin-1-yl]-2-(1H-tetrazol-5-yl)-6-(trifluoromethyl) benzenesulfonamide]",IC50,NDM-1; [4],134 nM
same,IC50,IMP-1; [4],120 nM
same,Klebsiella pneumoniae MITC95,[1]; [5],12.5 µM
same,Escherichia coli MITC95,[2]; [6],25 µM
same,Serratia marcescens MITC95,[3]; [7],25 µM
same,IC50,VIM-1; [14],8.52 nM
"CCC(CO)NCc1ccc(-c2cccc(S(N)(=O)=O)c2-c2nnn[nH]2)cc1 (stereo in doubt) [Example 345, 4′-({[(1S)-1-(hydroxymethyl)propyl]amino}methyl)-2-(1H-tetrazol-5-yl)biphenyl-3-sulfonamide]",IC50,NDM-1; [9],18.5 nM
same,IC50,IMP-1; [10],213 nM
same,Klebsiella pneumoniae MITC95,[1]; [11],50 µM
same,Escherichia coli MITC95,[2]; [12],1.563 µM
same,Serratia marcescens MITC95,[3]; [13],4.688 µM
same,IC50,VIM-1; [15],269 nM
"Cn1cc2cc(-c3cccc(S(N)(=O)=O)c3-c3nnn[nH]3)ccc2n1 [Example 127, 3-(2-methyl-2H-indazol-5-yl)-2-(1H-tetrazol-5-yl)benzenesulfonamide]",IC50,NDM-1; [4],1.11 nM
same,IC50,IMP-1; [4],157 nM
same,Klebsiella pneumoniae expressing VIM-1 (IHMA 599644) MITC95,[1],37.5 µM
same,Escherichia coli expressing NDM-1 (CLB 30016) MITC95,[2],1.172 µM
same,Serratia marcescens expressing IMP-1 (CL5741) MITC95,[3],4.688 µM
same,IC50,VIM-1; [8],84.2 nM
"NS(=O)(=O)c1c(CC2CCNCC2)ccc(-c2ccc(C3CN(CCO)C3)cc2)c1-c1nn[nH]n1 [Example 608, 3-[4-[1-(2-hydroxyethyl)azetidin-3-yl]phenyl]-6-(4-piperidylmethyl)-2-(2H-tetrazol-5-yl)benzenesulfonamide]",IC50,NDM-1; [16],30.4 nM
same,IC50,IMP-1; [17],127 nM
same,Klebsiella pneumoniae MITC95,[1]; [18],6.25 µM
same,Escherichia coli MITC95,[2]; [19],6.25 µM
same,Serratia marcescens MITC95,[3]; [20],6.25 µM
same,IC50,VIM-1; [21],45 nM
"Cc1ccc(C(F)(F)F)c(S(N)(=O)=O)c1-c1nnn[nH]1 [Example 487, 3-methyl-2-(1H-tetrazol-5-yl)-6-(trifluoromethyl)benzenesulfonamide]",IC50,NDM-1; [9],102 nM
same,IC50,IMP-1; [10],56.4 nM
same,Klebsiella pneumoniae MITC95,[1]; [11],25 µM
same,Escherichia coli MITC95,[2]; [12],1.563 µM
same,Serratia marcescens MITC95,[3]; [13],1.563 µM
same,IC50,VIM-1; [15],70.4 nM
"NC1CCC(N2CCC(c3ccc(-c4ccc(C(F)(F)F)c(S(N)(=O)=O)c4-c4nnn[nH]4)cc3)CC2)CC1 (centres unmarked) [Example 794, 4′-[1-(4-aminocyclohexyl)piperidin-4-yl]-2-(1H-tetrazol-5-yl)-4-(trifluoromethyl)biphenyl-3-sulfonamide]",IC50,NDM-1; [4],6.44 nM
same,IC50,IMP-1; [4],1.76 nM
same,Klebsiella pneumoniae MITC95,[1]; [5],50 µM
same,Escherichia coli MITC95,[2]; [6],1.563 µM
same,Serratia marcescens MITC95,[3]; [7],3.125 µM
same,IC50,VIM-1; [8],11 nM
"NS(=O)(=O)c1c(C(F)(F)F)ccc(-c2cccc3ncccc23)c1-c1nn[nH]n1 [Example 486, 3-(Quinolin-5-yl)-2-(2H-tetrazol-5-yl)-6-(trifluoromethyl)benzenesulfonamide]",IC50,NDM-1; [9],0.192 nM
same,IC50,IMP-1; [10],1.19 nM
same,Klebsiella pneumoniae MITC95,[1]; [11],4.531 µM
same,Escherichia coli MITC95,[2]; [12],1.208 µM
same,Serratia marcescens MITC95,[3]; [13],0.1367 µM
same,IC50,VIM-1; [15],0.134 nM
"N#Cc1ccc2ncc(-c3cccc(S(N)(=O)=O)c3-c3nnn[nH]3)n2c1 [Example 648, 3-(6-cyanoimidazo[1,2-a]pyridin-3-yl)-2-(1H-tetrazol-5-yl)benzenesulfonamide]",IC50,NDM-1; [16],5.11 nM
same,IC50,IMP-1; [17],95.7 nM
same,Klebsiella pneumoniae MITC95,[1]; [18],12.5 µM
same,Escherichia coli MITC95,[2]; [19],1.563 µM
same,Serratia marcescens MITC95,[3]; [20],6.25 µM
same,IC50,VIM-1; [21],15.3 nM
"Nc1nc2c(-c3ccc(CCC4CCNCC4)c(S(N)(=O)=O)c3-c3nn[nH]n3)cccc2s1 [Example 540, 3-(2-Aminobenzo[d]thiazol-4-yl)-6-(2-(piperidin-4-yl)ethyl)-2-(2H-tetrazol-5-yl)benzenesulfonamide]",Klebsiella pneumoniae MITC95,[1]; [18],12.5 µM
same,Escherichia coli MITC95,[2]; [19],1.563 µM
same,Serratia marcescens MITC95,[3]; [20],6.25 µM
same,IC50,VIM-1; [21],6.7 nM
"C[N+]1(C)CCC(Cc2ccc(-c3ccc(C4CNC4)cc3)c(-c3nn[nH]n3)c2S(N)(=O)=O)CC1 [Example 605, 3-[4-(azetidin-3-yl)phenyl]-6-[(1,1-dimethylpiperidin-1-ium-4-yl)methyl]-2-(2H-tetrazol-5-yl)benzenesulfonamide]",IC50,IMP-1; [17],160 nM
same,Klebsiella pneumoniae MITC95,[1]; [18],3.125 µM
same,Escherichia coli MITC95,[2]; [19],6.25 µM
same,Serratia marcescens MITC95,[3]; [20],6.25 µM
same,IC50,VIM-1; [21],3.89 nM
"CS(=O)(=O)NC1CCC(c2cccc(S(N)(=O)=O)c2-c2nn[nH]n2)CC1 (centres unmarked) [Example 169, 3-(4-(methylsulfonamido)cyclohexyl)-2-(2H-tetrazol-5-yl)benzenesulfonamide]",Klebsiella pneumoniae expressing VIM-1 (IHMA 599644) MITC95,[1],50 µM
same,Escherichia coli expressing NDM-1 (CLB 30016) MITC95,[2],2.344 µM
same,Serratia marcescens expressing IMP-1 (CL5741) MITC95,[3],3.125 µM
same,IC50,VIM-1; [14],57.6 nM
"C[N+]1(C)CCc2c(cccc2-c2ccc(C(F)(F)F)c(S(N)(=O)=O)c2-c2nn[nH]n2)C1 [Example 520, 2,2-Dimethyl-5-(3-sulfamoyl-2-(2H-tetrazol-5-yl)-4-(trifluoromethyl)phenyl)-1,2,3,4-tetrahydroisoquinolin-2-ium]",Klebsiella pneumoniae MITC95,[1]; [18],3.125 µM
same,Escherichia coli MITC95,[2]; [19],3.125 µM
same,Serratia marcescens MITC95,[3]; [20],3.125 µM
same,IC50,VIM-1; [21],1.96 nM
"CC(C)(C)Cc1ccc(-c2cccc3sc(N)nc23)c(-c2nn[nH]n2)c1S(N)(=O)=O [Example 537, 3-(2-Aminobenzo[d]thiazol-4-yl)-6-neopentyl-2-(2H-tetrazol-5-yl)benzenesulfonamide]",Klebsiella pneumoniae MITC95,[1]; [18],>200 µM
same,Escherichia coli MITC95,[2]; [19],50 µM
same,Serratia marcescens MITC95,[3]; [20],50 µM
same,IC50,VIM-1; [21],66.7 nM
"Cc1nc(N)ccc1-c1ccc(C(F)(F)F)c(S(N)(=O)=O)c1-c1nn[nH]n1 [Example 555, 3-(6-amino-2-methyl-3-pyridyl)-2-(2H-tetrazol-5-yl)-6-(trifluoromethyl)benzenesulfonamide]",Klebsiella pneumoniae MITC95,[1]; [18],3.125 µM
same,Escherichia coli MITC95,[2]; [19],0.5859 µM
same,Serratia marcescens MITC95,[3]; [20],6.25 µM
same,IC50,VIM-1; [21],0.177 nM
"NS(=O)(=O)c1c(CCC2CCNCC2)ccc(-c2ccc(C3CNC3)cc2)c1-c1nnn[nH]1 [Example 598, 3-[4-(azetidin-3-yl)phenyl]-6-[2-(4-piperidyl)ethyl]-2-(1H-tetrazol-5-yl)benzenesulfonamide]",Klebsiella pneumoniae MITC95,[1]; [18],1.563 µM
same,Escherichia coli MITC95,[2]; [19],1.563 µM
same,Serratia marcescens MITC95,[3]; [20],3.125 µM
same,IC50,VIM-1; [21],4.41 nM
